Results as given in ChEMBL document CHEMBL5528017, “Design and synthesis of dual BRD4/Src inhibitors for treatment of triple-negative breast cancer” (Eur J Med Chem, 2024).
Calls of active or inactive are those of the source. The calls are words filed in the database; no cut-off is given here.

What was measured:
MDA-MB-231 [1] = assay: Induction of cell cycle arrest in human MDA-MB-231 cells assessed as proportion of cells at G1 phase at 0.2 uM incubated for 24 hrs by propidium iodide staining based flow cytometry (reference value: 59.5%); type: functional
MDA-MB-231 [2] = assay: Antitumor activity against human MDA-MB-231 cells xenografted in NOD-SCID mouse assessed as inhibition of tumor growth at 15 mg/kg, ip administered 5 days per week for 27 days; type: functional; details: MDA-MB-231, 648 h, time 27 day, read-out: TGI
MDA-MB-231 [3] = assay: Antitumor activity against human MDA-MB-231 cells xenografted in NOD-SCID mouse assessed as reduction in tumor weight at 15 mg/kg, ip administered 5 days per week for 27 days; type: functional; details: MDA-MB-231, 648 h, time 27 day
MDA-MB-231 [4] = assay: Induction of cell cycle arrest in human MDA-MB-231 cells assessed as proportion of cells at G2 phase at 0.2 uM incubated for 24 hrs by propidium iodide staining based flow cytometry (reference value: 11.6%); type: functional
MDA-MB-231 [5] = assay: Induction of apoptosis in human MDA-MB-231 cells assessed as proportion of necrotic cells at 0.5 uM incubated for 36 hrs by AnnexinV-FITC/PI staining based flow cytometry (reference value: 0%); type: functional
[6] = Toxicity against NOD-SCID mouse xenografted with human MDA-MB-231 cells assessed as effect on body weight at 15 mg/kg, ip administered 5 days per week for 27 days; type: organism-based; details: in vivo, 648 h, time 27 day
CWR22R = assay: Antiproliferative activity against human 22Rv1 cells assessed as inhibition of cell viability incubated for 3 to 4 days by CCK8 assay; type: functional, cell-based; details: time 3-4 day
A549 = assay: Antiproliferative activity against human A549 cells assessed as inhibition of cell viability incubated for 3 to 4 days by CCK8 assay; type: functional, cell-based; details: time 3-4 day
MDA-MB-231 [7] = assay: Induction of cell cycle arrest in human MDA-MB-231 cells assessed as decrease in cyclin E1 expression at 0.1 to 0.2 uM incubated for 24 hrs by western blot analysis; type: functional, cell-based; details: dose 0.1-0.2 µM
MDA-MB-231 [8] = assay: Induction of cell cycle arrest in human MDA-MB-231 cells assessed as proportion of cells at G1 phase at 0.1 uM incubated for 24 hrs by propidium iodide staining based flow cytometry (reference value: 59.5%); type: functional
[9] = Toxicity against NOD-SCID mouse xenografted with human MDA-MB-231 cells assessed as adverse effects at 15 mg/kg, ip administered 5 days per week for 27 days; type: organism-based; details: in vivo, 648 h, time 27 day
MDA-MB-231 [10] = assay: cells; details: Homo sapiens, MDA-MB-231, 72 h
Description: Antiproliferative activity against human MDA-MB-231 cells assessed as inhibition of cell viability incubated for 72 hrs by CCK8 assay

MDA-MB-231 [11] = assay: Induction of apoptosis in human MDA-MB-231 cells assessed as proportion of early apoptotic cells at 0.5 uM incubated for 36 hrs by AnnexinV-FITC/PI staining based flow cytometry (reference value: 5.05%); type: functional
MDA-MB-231 [12] = assay: Induction of apoptosis in human MDA-MB-231 cells assessed as increase in cleaved PARP-1 expression at 0.5 uM incubated for 36 hrs by western blot analysis; type: functional, cell-based
MDA-MB-231 [13] = assay: Induction of cell cycle arrest in human MDA-MB-231 cells assessed as increase in p21 expression at 0.1 to 0.2 uM incubated for 24 hrs by western blot analysis; type: functional, cell-based; details: dose 0.1-0.2 µM
MDA-MB-231 [14] = assay: Induction of apoptosis in human MDA-MB-231 cells assessed as proportion of early apoptotic cells at 1 uM incubated for 36 hrs by AnnexinV-FITC/PI staining based flow cytometry (reference value: 5.05%); type: functional
MDA-MB-231 [15] = assay: Induction of apoptosis in human MDA-MB-231 cells assessed as proportion of late apoptotic cells at 1 uM incubated for 36 hrs by AnnexinV-FITC/PI staining based flow cytometry (reference value: […]%); type: functional
MDA-MB-231 [16] = assay: Induction of cell cycle arrest in human MDA-MB-231 cells assessed as proportion of cells at S phase at 0.1 uM incubated for 24 hrs by propidium iodide staining based flow cytometry (reference value: 28.2%); type: functional
MDA-MB-231 [17] = assay: Induction of cell cycle arrest in human MDA-MB-231 cells assessed as downregulation of cyclin B1 expression at 0.1 to 0.2 uM incubated for 24 hrs by western blot analysis; type: functional, cell-based; details: dose 0.1-0.2 µM
MDA-MB-231 [18] = assay: Induction of apoptosis in human MDA-MB-231 cells assessed as proportion of necrotic cells at 1 uM incubated for 36 hrs by AnnexinV-FITC/PI staining based flow cytometry (reference value: 0%); type: functional
MDA-MB-231 [19] = assay: Induction of apoptosis in human MDA-MB-231 cells assessed as proportion of viable cells at 0.5 uM incubated for 36 hrs by AnnexinV-FITC/PI staining based flow cytometry (reference value: 93.6%); type: functional
MDA-MB-231 [20] = assay: Antitumor activity against human MDA-MB-231 cells xenografted in NOD-SCID mouse assessed as inhibition of tumor growth at 20 mg/kg, ip qd for 10 days; type: functional; details: MDA-MB-231, 240 h, time 10 day, read-out: TGI
MDA-MB-231 [21] = assay: Induction of apoptosis in human MDA-MB-231 cells assessed as increase in cleaved caspase-9 expression at 0.5 uM incubated for 36 hrs by western blot analysis; type: functional, cell-based
MDA-MB-231 [22] = assay: Induction of cell cycle arrest in human MDA-MB-231 cells assessed as proportion of cells at G2 phase at 0.1 uM incubated for 24 hrs by propidium iodide staining based flow cytometry (reference value: 11.6%); type: functional
MDA-MB-231 [23] = assay: Induction of apoptosis in human MDA-MB-231 cells assessed as increase in cleaved caspase-3 expression at 0.5 uM incubated for 36 hrs by western blot analysis; type: functional, cell-based
MDA-MB-231 [24] = assay: Induction of cell cycle arrest in human MDA-MB-231 cells assessed as proportion of cells at S phase at 0.2 uM incubated for 24 hrs by propidium iodide staining based flow cytometry (reference value: 28.2%); type: functional
MDA-MB-231 [25] = assay: Induction of apoptosis in human MDA-MB-231 cells assessed as proportion of viable cells at 1 uM incubated for 36 hrs by AnnexinV-FITC/PI staining based flow cytometry (reference value: 93.6%); type: functional
MCF7 = assay: Antiproliferative activity against human MCF7 cells assessed as inhibition of cell viability incubated for 3 to 4 days by CCK8 assay; type: functional, cell-based; details: time 3-4 day
MDA-MB-231 [26] = assay: Induction of apoptosis in human MDA-MB-231 cells assessed as proportion of late apoptotic cells at 0.5 uM incubated for 36 hrs by AnnexinV-FITC/PI staining based flow cytometry (reference value: […]%); type: functional

IC50 (MDA-MB-231 [10]): 34 nM
Structure (SMILES): Cc1nc(Nc2ncc(C(=O)Nc3c(C)cccc3Cl)s2)cc(N2CCN(CCOC(=O)C(C)NC(=O)C[C@@H]3N=C(c4ccc(Cl)cc4)c4c(sc(C)c4C)-n4c(C)nnc43)CC2)n1 (some centres undefined)
Activity (MDA-MB-231 [1]): 84.4%
inhibition in vivo at 15 mg/kg (MDA-MB-231 [2]): 70.7%
inhibition in vivo at 15 mg/kg (MDA-MB-231 [3]): 66.1%
Activity (MDA-MB-231 [4]): 4.96%
Activity (MDA-MB-231 [5]): 0%
Activity [6]: Non-Toxic
Activity (CWR22R): Active
Activity (A549): Active
Activity (MDA-MB-231 [7]): Active
Activity (MDA-MB-231 [8]): 80.4%
Activity [9]: Non-Toxic
Activity (MDA-MB-231 [11]): 22.9%
Activity (MDA-MB-231 [12]): Active
Activity (MDA-MB-231 [13]): Active
Activity (MDA-MB-231 [14]): 16.5%
Activity (MDA-MB-231 [15]): 7.14%
Activity (MDA-MB-231 [16]): 12.8%
Activity (MDA-MB-231 [17]): Active
Activity (MDA-MB-231 [18]): 0%
Activity (MDA-MB-231 [19]): 71.1%
inhibition in vivo at 20 mg/kg (MDA-MB-231 [20]): 75.4%
Activity (MDA-MB-231 [21]): Active
Activity (MDA-MB-231 [22]): 6.47%
Activity (MDA-MB-231 [23]): Active
Activity (MDA-MB-231 [24]): 10.1%
Activity (MDA-MB-231 [25]): 76.3%
Activity (MCF7): Active
Activity (MDA-MB-231 [26]): 6.01%
